33 molecules from the METLIN SMRT retention time set (Domingo-Almenara et al. 2019) can be followed below.

The data set is described as follows: gradient 5% acetonitrile 3 min, to 50% in 2 min, to 85% in 15 min, held 3 min, 100 µL/min. To be noted: column: Zorbax Extend-C18 2.1 x 50 mm; eluents: water / acetonitrile, 0.1% formic acid. The essentials:
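Retention times of pure standards were taken from adduct peaks that were selected by computer and manually inspected. Over 3 months, mixtures of ~100 molecules were run by HPLC–quadrupole time-of-flight mass spectrometry in positive and negative ionization mode. The Zorbax Extend-C18 column (2.1 × 50 mm, 1.8 μm) ran at 100 μL/min in water and acetonitrile, each containing 0.1% formic acid, with 40 μL dead volume and 900 μL dwell volume.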
`COc1ccc(Cl)cc1CC1C(=O)Nc2ccccc21` (stereo not drawn): the RP-LC retention time was 921 s.

With `COc1ccccc1N1CCN(CCN2C(=O)N=C3C(=Nc4ccccc43)C2=O)CC1`, the RP-LC retention time worked out at 705 s.

Take `Cn1cnc2cc(CNC(=O)CCc3ccccc3)ccc21`: the RP-LC retention time came out at 604 s.

For the molecule `CCc1cccc(NC(=O)Cn2c(=O)n(-c3cccc(C)c3)c(=O)c3c2cc(C)n3C)c1`, the RP-LC retention time came out at 966 s.

Molecule `CCc1ccc(OCC(=O)N(Cc2ccc(N(C)C)cc2)C2CCS(=O)(=O)C2)cc1` (stereo not drawn) returned an RP-LC retention time of 792 s.

In turn, `COc1ccc(N2CCN(c3cc(SCC(=O)Nc4ccc(C)c(F)c4)ncn3)CC2)cc1` came in with an RP-LC retention time of 1030 s.

`CCN1CCN(S(=O)(=O)c2cc(-c3nnc(-c4ccccc4)o3)ccc2OC)CC1` gave an RP-LC retention time of 636 s.

`COc1ccc(NC(=O)CSc2nnc3c4cc(-c5ccccc5)nn4ccn23)c(OC)c1` returned an RP-LC retention time of 858 s.

`Cc1cc(C)c(S(=O)(=O)N2CCc3nc(-c4ccccc4)ncc3C2)cc1C` displayed an RP-LC retention time of 1230 s.

The molecule `COc1ccc2c(c1)C1(CCN(C(=O)NCc3ccc(F)cc3)C1)C(=O)N2` (stereo not drawn) registered an RP-LC retention time of 697 s.

For the molecule `CCOC(=O)C1CCN(C(=O)COc2ccc(NC(=O)C3CC3)cn2)CC1`, the RP-LC retention time is 682 s.

In the case of `COCCCNC(=O)C1CCN(c2ccc(Sc3ccc(C(C)C)cc3)nn2)CC1`, the RP-LC retention time was 853 s.

Turning to `CCOC(=O)c1noc2ncnc(N3CCN(Cc4ccccc4)CC3)c12`, the RP-LC retention time was determined as 643 s.

For the molecule `CC1CCN(c2ccc(-c3cccc(N)c3)nn2)CC1`, the RP-LC retention time is 588 s.

Take `CCc1nc(-c2csc(S(=O)(=O)N3CCC(C(=O)N4CCc5ccccc5C4)CC3)c2)no1`: the RP-LC retention time was found to be 1020 s.

Molecule `COCCn1c(C)c(C)c(S(=O)(=O)c2ccc(F)cc2)c1NC(=O)C1CCCO1` (stereo not drawn) returned an RP-LC retention time of 839 s.

`O=C(O)CNC(=O)C1CCCN(S(=O)(=O)c2ccc(F)cc2)C1` (stereo not drawn) yielded an RP-LC retention time of 634 s.

The molecule `O=C(CCSc1ccc(F)cc1)Nc1nc2c(s1)CCC2` yielded an RP-LC retention time of 878 s.

Molecule `Cc1cc(C)n2nc(-c3ccccc3)c(C)c2n1` gave an RP-LC retention time of 906 s.

As to `Cc1cc(C)n(CC(=O)N2CCN(c3ccccc3O)CC2)n1`, the RP-LC retention time came to 604 s.

On to `O=C(NCCN1CCCCCC1)C1CCN(c2cnc(N3CCCC3)nc2)CC1`, for which the RP-LC retention time was determined as 569 s.

Take `CCCN1C(=O)C(NC(=O)c2ccc(F)cc2)(C(F)(F)F)C2=C1CC(C)(C)CC2=O` (stereo not drawn): the RP-LC retention time came to 952 s.

Take `CCN1C(=O)c2cccnc2Sc2cc(C(=O)N3CCC(C)CC3)ccc21`: the RP-LC retention time is 798 s.

As for `CC(C)C(=O)Nc1ccc(S(=O)(=O)NCC(c2ccsc2)N(C)C)cc1` (stereo not drawn), the RP-LC retention time was determined as 565 s.

`c1cnn(-c2ccc(-c3noc(-c4ccc5c(c4)OCO5)n3)cn2)c1` gave an RP-LC retention time of 1170 s.

The molecule `CC(C)n1cnc(S(=O)(=O)N2CCC(C(=O)N3CCN(c4ccc(F)cc4)CC3)CC2)c1` displayed an RP-LC retention time of 799 s.

`CCN(CC)C(=O)c1ccc(-c2nc3cc(NS(=O)(=O)c4ccc(F)c(F)c4)ccc3n2C)cc1`: the RP-LC retention time came to 724 s.

`Cc1ccc(C2NC(=O)N(CC(=O)Nc3ccccc3F)C3=C2C(=O)OC3)cc1` (stereo not drawn) had an RP-LC retention time of 786 s.

In turn, `COc1ccc(Nc2c(-c3ccc(C)cc3)nc3cnccn23)cc1` displayed an RP-LC retention time of 855 s.

`CCC(C)NC(=O)CSc1nc(N2CCc3ccccc3C2)nc2ccccc12` (stereo not drawn) returned an RP-LC retention time of 795 s.

As for `CCOC(=O)C1=C(CN2CCC(C(=O)OCC)CC2)NC(=O)NC1c1ccccc1` (stereo not drawn), the RP-LC retention time was 643 s.

As to `CC(C)NC(=O)C1CC(=O)N(c2ccc3c(c2)CCN3C(=O)C2CC2)C1` (stereo not drawn), the RP-LC retention time was 657 s.

The molecule `CCNc1cc(N2CCCC(CCC(=O)NCc3cccc(F)c3)C2)ncn1` (stereo not drawn) gave an RP-LC retention time of 585 s.
